Test [1] deals with T1, β2-GPI and anti-β2-GPI antibodies (Cof-22, WB-CAL-1, EY2C9) (Homo sapiens, UniProt P02749).
T1 construct: β2-GPI was purified from normal human plasma as described in [35] with slight modification; from tissue; host or cells: β2-GPI from pooled normal human plasma
T1 sequence (P02749 20-345): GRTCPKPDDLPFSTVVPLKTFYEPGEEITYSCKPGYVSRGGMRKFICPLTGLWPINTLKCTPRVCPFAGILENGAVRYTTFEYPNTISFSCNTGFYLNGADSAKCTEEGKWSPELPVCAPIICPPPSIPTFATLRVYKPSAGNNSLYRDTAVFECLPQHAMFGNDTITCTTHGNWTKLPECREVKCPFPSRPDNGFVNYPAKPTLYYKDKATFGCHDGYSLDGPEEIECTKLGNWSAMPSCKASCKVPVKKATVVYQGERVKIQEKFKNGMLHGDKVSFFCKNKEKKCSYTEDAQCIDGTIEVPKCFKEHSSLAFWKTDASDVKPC
Put plainly: TLC ligand blot with β2-GPI and anti-β2-GPI antibodies. Type of test: binding. The note with it: result in words. The source says: Extracted lipids were spotted on a Polygram silica gel plate (product of Machery-Nagel) and developed in chloroform/methanol/30% ammonia/water (120:80:10:5, v/v/v/v, hereinafter referred to as solvent A). The plate was stained with I2 vapor, or with a spray of molybdenum blue, of 2N sulfuric acid containing 2% orcin, or of glacial acetic acid/sulfuric acid (19:1, v/v) (Lieberman-Burchard reaction). Alternatively, the developed plate was subjected to ligand blot with β2-GPI and an anti-β2-GPI antibody. TLC plates were blocked with PBS containing 1% bovine serum albumin (BSA) and were subsequently incubated with β2-GPI, anti-β2-GPI antibodies (Cof-22, WB-CAL-1, or EY2C9), and HRP-labeled anti-mouse IgG antibodies or anti-human IgM antibodies for one hour. In each step, plates were extensively washed with PBS. The color was developed with H2O2 and 4-methoxy-1-naphtol (product of Aldrich). The ligand-enriched bands scraped from the TLC plate were subjected to another TLC in chloroform/methanol (8:1, v/v) (hereinafter referred to as solvent B). […]
A fraction rich in a ligand (originating from oxLDL) obtained by two-step TLC was analyzed by reversed phase HPLC on a Sephasil Peptide C-18 5-μm column (4.6 mm×250 mm; product of Amersham-Pharmacia Biotech). […]

The subject of test [2] is WB-CAL-1. As to the kind of experiment: ELISA on solid-phase lipid (ligand)-coated plate: WB-CAL-1 binding in presence of β2-GPI. Set-up: species or system mouse. As to the method: (§1) Binding to extracted lipids: A microtiter plate (Immulon 1B, Dynex Technologies Inc.) was coated with lipids extracted from LDLs (50 μg/mL, 50 μL/well) by ethanol evaporation. The wells were blocked with PBS containing 1% BSA for one hour and the wells were incubated with 30 μg/mL of β2-GPI for one hour. Then, β2-GPI binding was detected using Cof-22 and HRP-labeled anti-mouse IgG antibodies. Alternatively, an anti-β2-GPI autoantibody (Cof-22, WB-CAL-1, or EY2C9) was diluted with a 0.3% BSA-containing PBS, and the diluted antibody was added to the coated plate (1.0 μg/mL, 100 μL/well) and incubated with β2-GPI (15 μg/mL) for one hour. The binding of the antibody was detected by an HRP-labeled anti-mouse IgG /or an anti-human IgM. The color was developed with H2O2 and o-phenylenediamine, and OD was measured at 490 nm. Between these steps, extensive washing were done using PBS containing 0.05% Tween 20.
(§2) Synthesized oxLig-1 (50 μg/mL, 50 μL/well) was adsorbed by evaporation on a polystyrene plate (Immulon 1B; Dynex Technologies Inc.), and the plate was then blocked with 1% BSA. Serum samples (diluted 1:100 with PBS containing 0.3% BSA) were incubated in the wells with β2-GPI (15 μg/mL) or other proteins for one hour at room temperature. Antibody binding was detected with HRP-labeled anti-human IgG. Further steps were performed through a method as described in “anti-β2-GPI ELISA.”
(§3) CL (50 μg/mL, 50 μL/well) was adsorbed on a polystyrene plate (Immulon 1B), and further steps were performed through a method as described in “ELISA for antibodies against a protein-oxLig-1 complex.”
(In general: ELISA stands for enzyme-linked immunosorbent assay.)

Test [3] has as its system EY2C9. Put plainly: ELISA on solid-phase lipid (ligand)-coated plate: EY2C9 binding in presence of β2-GPI. Details: species or system human. On the procedure: as §1, §2, §3
Setting [4] is: Experiment 1, Absorbance, mean ± SD, n = 3, solid-phase lipid, β2-GPI 15 μg/mL.
Setting [5] is: absorbance at 490 nm, mean ± SD (n = 3), solid-phase ligand not methylated.

On to `CC(C)CCC[C@@H](C)[C@H]1CC[C@H]2[C@@H]3C(=O)C=C4C[C@@H](OC(=O)CCCCCCCC(=O)O)CC[C@]4(C)[C@H]3CC[C@]12C` [oxLig-1, 9-oxo-9-(7-ketocholest-5-en-3β-yloxy)nonanoic acid], for which the “ligand blot: interaction of β2-GPI and anti-β2-GPI antibodies with ligand” value in test [1] was “positively stained”; in test [1] (listed as Synthesized oxLig-1) it was “same Rf position and binding characteristics”. Besides, the “Binding of β2-GPI-dependent aCL, WB-CAL-1” value in test [2] (setting [4]) stood at 1.035 ± 0.062. Further, the “WB-CAL-1 binding, No treatment” value in test [2] (setting [5]) is on record as 0.945 +/− 0.068. Moreover, the “Binding of β2-GPI-dependent aCL, EY2C9” value in test [3] (setting [4]) worked out at 0.915 ± 0.072. The “EY2C9 binding, No treatment” value in test [3] (setting [5]) is reported as 1.458 +/− 0.062.

The values are drawn from patent US7160733B2, “Ligand specific to β2-glycoprotein I and use thereof” (priority 2001, dated 2007).
